Source: PubChem BioAssay AID248 (DTP/NCI, 2004)
Several values for one entry are separate records, joined by “and”; a condition that tells them apart may be missing. Equal values may be shown once. Toxic doses and inconclusive results are not listed. Rule as the data show it: active = T/C of 150% or more; inactive = T/C below 125%.

Tested on: L1210 leukemia ip in BDF1 mice, survival T/C
Test: NCI In Vivo Anticancer Drug Screen. Data for tumor model L1210 Leukemia (intraperitoneal) in B6D2F1 (BDF1) mice
Settings: endpoint: mean survival time, higher = longer survival
How it was run: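 Transplantable tumor model; survival measured in treated vs vehicle control mice. Value = treated/control.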

[1] = dose: 50.0 mg/kg/injection, schedule: Q04DX003 (ip), vehicle: saline
[2] = dose: 100.0 mg/kg/injection, schedule: Q04DX003 (ip), vehicle: saline
[3] = dose: 100.0 mg/kg/injection, schedule: Q01DX001 (ip), vehicle: carboxymethylcellulose (CMC)
[4] = dose: 200.0 mg/kg/injection, schedule: Q01DX001 (ip), vehicle: carboxymethylcellulose (CMC)
[5] = dose: 400.0 mg/kg/injection, schedule: Q01DX001 (ip), vehicle: carboxymethylcellulose (CMC)
[6] = dose: 50.0 mg/kg/injection, schedule: Q01DX001 (ip), vehicle: carboxymethylcellulose (CMC)
[7] = dose: 100.0 mg/kg/injection, schedule: Q04DX003 (ip), vehicle: saline with Tween-80
[8] = dose: 200.0 mg/kg/injection, schedule: Q04DX003 (ip), vehicle: saline with Tween-80
[9] = dose: 400.0 mg/kg/injection, schedule: Q04DX003 (ip), vehicle: saline with Tween-80
[10] = dose: 100.0 mg/kg/injection, schedule: Q04DX003 (ip), vehicle: Klucel (hydroxypropylcellulose) (HPC)
[11] = dose: 100.0 mg/kg/injection, schedule: Q01DX001 (ip), vehicle: Klucel (hydroxypropylcellulose) (HPC)

Measured: T/C

CC(C)C([NH-])=O.CC(C)C([NH-])=O.[Cl][Pt+2][Cl]
inactive: dose: 12.5 mg/kg/injection, schedule: Q04DX003 (ip), vehicle: saline 116 % of control | dose: 25.0 mg/kg/injection, schedule: Q01DX009 (ip), vehicle: saline 102 % of control | dose: 25.0 mg/kg/injection, schedule: Q04DX003 (ip), vehicle: saline 118 % of control | dose: 50.0 mg/kg/injection, schedule: Q01DX009 (ip), vehicle: saline 89 % of control | [1] 112 % of control | [2] 108 % of control and 118 % of control

CC1N(N=O)CC1(Cl)c1ccccc1 (stereo not drawn)
inactive: dose: 100.0 mg/kg/injection, schedule: Q04DX002 (ip), vehicle: saline 98 % of control | dose: 200.0 mg/kg/injection, schedule: Q04DX002 (ip), vehicle: saline 98 % of control | dose: 400.0 mg/kg/injection, schedule: Q04DX002 (ip), vehicle: saline 102 % of control

O=C(OCCBr)Oc1cccc2ccccc12
inactive: [3] 98 % of control | [4] 93 % of control | [5] 95 % of control

CC1(C)N=C(N)N=C(N)N1c1ccc(CCc2ccccc2)cc1
inactive: dose: 12.5 mg/kg/injection, schedule: Q01DX009 (ip), vehicle: Klucel (hydroxypropylcellulose) (HPC) 97 % of control | dose: 12.5 mg/kg/injection, schedule: Q04DX003 (ip), vehicle: Klucel (hydroxypropylcellulose) (HPC) 98 % of control | dose: 12.5 mg/kg/injection, schedule: Q04DX003 (ip), vehicle: saline with Tween-80 101 % of control | dose: 25.0 mg/kg/injection, schedule: Q01DX009 (ip), vehicle: Klucel (hydroxypropylcellulose) (HPC) 93 % of control | dose: 25.0 mg/kg/injection, schedule: Q04DX003 (ip), vehicle: Klucel (hydroxypropylcellulose) (HPC) 104 % of control | dose: 25.0 mg/kg/injection, schedule: Q04DX003 (ip), vehicle: saline with Tween-80 102 % of control | dose: 50.0 mg/kg/injection, schedule: Q04DX003 (ip), vehicle: Klucel (hydroxypropylcellulose) (HPC) 93 % of control | dose: 50.0 mg/kg/injection, schedule: Q04DX003 (ip), vehicle: saline with Tween-80 104 % of control

CCN(CC)CCCCCCNc1ccnc2cc(Cl)ccc12
inactive: [6] 95 % of control

Cc1cc(C)c2c(c1)CC2NC(=O)Cc1ccccc1 (stereo not drawn)
inactive: dose: 25.0 mg/kg/injection, schedule: Q04DX002 (ip), vehicle: Klucel (hydroxypropylcellulose) (HPC) 116 % of control | dose: 50.0 mg/kg/injection, schedule: Q04DX002 (ip), vehicle: Klucel (hydroxypropylcellulose) (HPC) 89 % of control | dose: 100.0 mg/kg/injection, schedule: Q04DX002 (ip), vehicle: Klucel (hydroxypropylcellulose) (HPC) 92 % of control

CCCCCCCCCCCCCCCCCCNC(=O)Nc1ccccc1CC
inactive: dose: 100.0 mg/kg/injection, schedule: Q01DX009 (sc), vehicle: olive oil, sesame oil, peanut oil 104 % of control | dose: 100.0 mg/kg/injection, schedule: Q04DX003 (sc), vehicle: olive oil, sesame oil, peanut oil 98 % of control | dose: 200.0 mg/kg/injection, schedule: Q01DX009 (sc), vehicle: olive oil, sesame oil, peanut oil 104 % of control | dose: 200.0 mg/kg/injection, schedule: Q04DX003 (sc), vehicle: olive oil, sesame oil, peanut oil 94 % of control | dose: 400.0 mg/kg/injection, schedule: Q01DX009 (sc), vehicle: olive oil, sesame oil, peanut oil 106 % of control | dose: 400.0 mg/kg/injection, schedule: Q04DX003 (sc), vehicle: olive oil, sesame oil, peanut oil 109 % of control

O=C(NC(=S)Nc1cccc(O)c1)c1cccc([N+](=O)[O-])c1
inactive: dose: 100.0 mg/kg/injection, schedule: Q01DX001 (ip), vehicle: saline with Tween-80 93 % of control | dose: 100.0 mg/kg/injection, schedule: Q01DX009 (ip), vehicle: saline with Tween-80 94 % of control and 87 % of control | dose: 100.0 mg/kg/injection, schedule: Q04DX002 (ip), vehicle: saline with Tween-80 98 % of control and 101 % of control | [7] 89 % of control | dose: 200.0 mg/kg/injection, schedule: Q01DX001 (ip), vehicle: saline with Tween-80 97 % of control | dose: 200.0 mg/kg/injection, schedule: Q01DX009 (ip), vehicle: saline with Tween-80 93 % of control and 105 % of control | dose: 200.0 mg/kg/injection, schedule: Q04DX002 (ip), vehicle: saline with Tween-80 96 % of control and 109 % of control | [8] 109 % of control | dose: 400.0 mg/kg/injection, schedule: Q01DX001 (ip), vehicle: saline with Tween-80 103 % of control | dose: 400.0 mg/kg/injection, schedule: Q01DX009 (ip), vehicle: saline with Tween-80 94 % of control | dose: 400.0 mg/kg/injection, schedule: Q04DX002 (ip), vehicle: saline with Tween-80 101 % of control | [9] 94 % of control

O=C(Nc1ccc(F)c(Cl)c1)Oc1cc(=O)oc2ccccc12
inactive: [10] 92 % of control | dose: 200.0 mg/kg/injection, schedule: Q04DX003 (ip), vehicle: Klucel (hydroxypropylcellulose) (HPC) 101 % of control | dose: 400.0 mg/kg/injection, schedule: Q04DX003 (ip), vehicle: Klucel (hydroxypropylcellulose) (HPC) 105 % of control

CCCC[n+]1[nH]oc(=O)c1C(=O)[O-]
inactive: [10] 98 % of control

O=C1OC(=O)C2C3OC(C(Br)C3Br)C12 (stereo not drawn)
inactive: dose: 16.0 mg/kg/injection, schedule: Q04DX003 (ip), vehicle: saline 100 % of control | dose: 37.5 mg/kg/injection, schedule: Q04DX003 (ip), vehicle: saline 95 % of control | [1] 101 % of control | [2] 100 % of control and 90 % of control

CCOC(=O)c1cnc(SC)nc1Nc1ccccc1N
inactive: dose: 50.0 mg/kg/injection, schedule: Q01DX001 (ip), vehicle: Klucel (hydroxypropylcellulose) (HPC) 94 % of control | [11] 94 % of control | dose: 200.0 mg/kg/injection, schedule: Q01DX001 (ip), vehicle: Klucel (hydroxypropylcellulose) (HPC) 101 % of control

[N-]=[N+]=NCCCCCCCCCCN=[N+]=[N-]
inactive: dose: 75.0 mg/kg/injection, schedule: Q04DX003 (ip), vehicle: saline 102 % of control | dose: 150.0 mg/kg/injection, schedule: Q04DX003 (ip), vehicle: saline 101 % of control | dose: 300.0 mg/kg/injection, schedule: Q04DX003 (ip), vehicle: saline 91 % of control

N#Cc1cc(-c2ccccc2)c[nH]c1=O
inactive: dose: 20.0 mg/kg/injection, schedule: Q01DX001 (ip), vehicle: Klucel (hydroxypropylcellulose) (HPC) 98 % of control | dose: 40.0 mg/kg/injection, schedule: Q01DX001 (ip), vehicle: Klucel (hydroxypropylcellulose) (HPC) 101 % of control | dose: 80.0 mg/kg/injection, schedule: Q01DX001 (ip), vehicle: Klucel (hydroxypropylcellulose) (HPC) 103 % of control | [11] 102 % of control

O=P(NC1CCCCC1)(Oc1ccccc1)Oc1ccccc1
inactive: [6] 95 % of control | [3] 92 % of control | [7] 102 % of control | [4] 97 % of control | [8] 97 % of control | [5] 97 % of control | [9] 100 % of control

Fc1ccc(C(=S)Nc2ccccc2)cc1
inactive: dose: 100.0 mg/kg/injection, schedule: Q01DX001 (ip), vehicle: acetone 104 % of control | dose: 200.0 mg/kg/injection, schedule: Q01DX001 (ip), vehicle: acetone 98 % of control | dose: 400.0 mg/kg/injection, schedule: Q01DX001 (ip), vehicle: acetone 92 % of control

CCc1ccc(NS(=O)(=O)c2ccc3ccccc3c2)cc1
inactive: dose: 100.0 mg/kg/injection, schedule: Q01DX009 (ip), vehicle: Klucel (hydroxypropylcellulose) (HPC) 107 % of control | dose: 200.0 mg/kg/injection, schedule: Q01DX009 (ip), vehicle: Klucel (hydroxypropylcellulose) (HPC) 107 % of control | dose: 400.0 mg/kg/injection, schedule: Q01DX009 (ip), vehicle: Klucel (hydroxypropylcellulose) (HPC) 98 % of control
